What all share (assay type): cell-based
The test system of one experiment is KM12 cells. In words: KM12 cells proliferation inhibition (MTS), mechanism-based assay for TRK. The note with it: Homo sapiens, KM12, 72 h. Summed up:
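KM12 cells (1000 cells/well, RPMI-1640 plus 10% FBS) were treated with compounds at 1.5–10000 nM final for 72 h at 37 °C. Viability was measured by MTS for 2 h, stopped with SDS, with absorbance read at 490 nm (650 nm reference). IC50 was calculated from the readings.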

The target of the next experiment is T1, TPM3-TRKA-G595R (Homo sapiens, UniProt P04629, G595R).
T1 construct: TPM3 (tropomyosin alpha-3, P06753) fusion partner; expressed in transfected cells; host or cells: Ba/F3; the other entry of the earlier key: TPM3 (P06753, Tropomyosin alpha-3 chain)
The experiment in a line: Engineered Ba/F3 cell proliferation inhibition (MTS), TPM3-TRKA-G595R. Conditions: 72 h. A digest of the protocol:
(§1)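 Ba/F3 cells stably expressing the TRK fusion, grown with puromycin, were plated 4 h then treated 72 h at 37 °C with compound 1.5–10000 nM final. Proliferation measured by MTS (2 h), absorbance at 490 nm with 650 nm reference; IC50 derived by curve fit.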

A further experiment has as its target T2, ETV6-TRKC (Homo sapiens, UniProt Q16288).
T2 construct: fused on or other part: P41212 (Transcription factor ETV6)
In words: Engineered Ba/F3 cell proliferation inhibition (MTS), ETV6-TRKC. The note with it: 72 h. An excerpt: (§2) MTS testing kit was purchased from Promega (Madison, Wis., USA). The RPMI-1640, Fetal bovine serum and Penicillin-Streptomycin were purchased from Gibco (San Francisco, Calif., USA). Dimethyl sulfoxide (DMSO) and Puromycin were purchased from Sigma (St. Louis., Mo., USA). Mouse interleukin-3 (IL-3) was purchased from Cell signaling Technology (Boston, Mass., USA).
(§3) To investigate whether a compound is able to inhibit the activity of TRK fusion mutation in cells, a mechanism-based assay using engineered Ba/F3 cell lines stably overexpressing oncogenic rearrangement or gene mutation of TRK (TPM3-TRKA, TPM3-TRKA-G595R, AFAP1-TRKB, ETV6-TRKC and ETV6-TRKC-G623R) were developed. In this assay, inhibition of TRK fusion mutation was detected by the cell proliferation inhibition of engineered Ba/F3 cells. Engineered Ba/F3 cells were cultured in culture flasks to 40-80% confluence in RPMI-1640 supplemented with 10% fetal bovine serum, 2 ug/mL puromycin. Cells were collected and plated onto 96-well plates at desired cell density (Ba/F3-TPM3-TRKA: 3×10^4/mL, Ba/F3-TPM3-TRKA-G595R: 1×10^5/mL, Ba/F3-AFAP1-TRKB: 1×10^5/mL, Ba/F3-ETV6-TRKC: 3×10^4/mL, Ba/F3-ETV6-TRKC-G623R: 3×10^4/mL). Plates were incubated at 37° C., with 5% CO2 for 4 h. Compounds were then added to the plates with the final compound concentrations of 10000, 3333, 1111, […], 123, 41.2, 13.7, 4.6 and 1.5 nM. Plates were incubated at 37° C., with 5% CO2 for 72 h. A mixture of 20 μl MTS/100 μl medium were added to each well and the plates were incubated at 37° C., with 5% CO2 for exactly 2 h. The reaction was stopped by adding 25 μl of 10% SDS per well. The absorbance was measured at 490 nm and 650 nm (reference wavelength). IC50 was calculated using GraphPad Prism 5.0 software.

The target of a further experiment is T3, ETV6-TRKC-G623R (Homo sapiens, UniProt Q16288, G623R).
T3 construct: fused on or other part: P41212 (Transcription factor ETV6)
In words: Engineered Ba/F3 cell proliferation inhibition (MTS), ETV6-TRKC-G623R. The note with it: 72 h. Summed up:
as §1

A further experiment deals with T4, TPM3-TRKA (Homo sapiens, UniProt P04629).
T4 construct: TPM3 (tropomyosin alpha-3, P06753) fusion partner; expressed in transfected cells; host or cells: Ba/F3; the other entry of the earlier key: TPM3 (P06753, Tropomyosin alpha-3 chain)
The experiment in a line: Engineered Ba/F3 cell proliferation inhibition (MTS), TPM3-TRKA. The note with it: 72 h.
Excerpt: as §2, §3

Molecules are shown by their SMILES.

T4 sequence (P04629 510-796 limits assumed): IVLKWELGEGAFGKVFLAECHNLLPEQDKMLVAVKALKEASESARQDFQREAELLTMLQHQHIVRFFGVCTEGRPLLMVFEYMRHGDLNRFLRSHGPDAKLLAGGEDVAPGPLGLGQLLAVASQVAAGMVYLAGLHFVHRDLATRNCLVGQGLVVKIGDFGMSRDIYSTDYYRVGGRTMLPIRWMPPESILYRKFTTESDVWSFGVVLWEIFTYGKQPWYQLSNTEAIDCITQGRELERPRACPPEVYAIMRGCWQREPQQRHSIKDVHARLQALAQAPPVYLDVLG
T3 sequence (Q16288 whole entry G623R, the tested form may be a part): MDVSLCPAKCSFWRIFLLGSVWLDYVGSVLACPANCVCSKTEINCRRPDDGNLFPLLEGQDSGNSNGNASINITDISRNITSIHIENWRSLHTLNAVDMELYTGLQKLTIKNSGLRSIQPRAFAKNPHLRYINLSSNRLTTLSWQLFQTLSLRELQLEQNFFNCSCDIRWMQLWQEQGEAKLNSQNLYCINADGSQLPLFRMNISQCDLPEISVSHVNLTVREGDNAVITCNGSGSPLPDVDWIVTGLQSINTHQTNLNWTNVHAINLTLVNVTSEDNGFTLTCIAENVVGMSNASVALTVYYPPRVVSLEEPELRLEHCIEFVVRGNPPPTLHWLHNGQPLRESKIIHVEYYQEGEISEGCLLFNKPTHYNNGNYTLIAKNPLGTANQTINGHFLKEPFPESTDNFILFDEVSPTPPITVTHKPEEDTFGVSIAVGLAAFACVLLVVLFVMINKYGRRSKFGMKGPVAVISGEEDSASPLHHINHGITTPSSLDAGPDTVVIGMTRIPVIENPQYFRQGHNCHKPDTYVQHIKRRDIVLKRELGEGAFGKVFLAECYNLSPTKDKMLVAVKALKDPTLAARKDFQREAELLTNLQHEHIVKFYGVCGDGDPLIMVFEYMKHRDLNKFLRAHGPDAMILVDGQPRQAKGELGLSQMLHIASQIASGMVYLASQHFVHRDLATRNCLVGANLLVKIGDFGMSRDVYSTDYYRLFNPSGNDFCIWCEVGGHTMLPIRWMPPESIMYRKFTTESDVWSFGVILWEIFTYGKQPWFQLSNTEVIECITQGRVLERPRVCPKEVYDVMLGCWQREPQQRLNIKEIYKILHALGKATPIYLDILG
T1 sequence (P04629 510-796 G595R limits assumed): as the sequence (P04629 510-796 limits assumed) above, with G86R counted along it
T2 sequence (Q16288 whole entry, the tested form may be a part): as the sequence (Q16288 whole entry G623R, the tested form may be a part) above, with R623G counted along it

In general, IC50 refers to the concentration needed to halve the response being measured. A high value points to weaker potency in that assay. Take `C[C@@H]1CCc2ncc(F)cc2[C@@]23C[C@@H]2CCN3c2ccc3ncc(n3n2)C(=O)N1` [Example 29, (2^1R,2^5S,6R,E)-3^5-fluoro-6-methyl-2^2,7-diaza-1(6,3)-imidazo[1,2-b]pyridazina-3(3,2)-pyridina-2(2,1)-bicyclo[3.1.0]hexanacyclooctaphan-8-one]: the IC50 in the experiment on KM12 cells, against TPM3-TRKA-G595R, against ETV6-TRKC, on ETV6-TRKC-G623R and against TPM3-TRKA was 1 nM each time.

With `C[C@H]1CNC(=O)c2cnn3ccc(nc23)N2CC[C@H]3C[C@]32c2cc(F)ccc2O1` [Example 22, (1^3E,1^4E,2^1R,2^5S,5S)-3^5-fluoro-5-methyl-4-oxa-2^2,7-diaza-1(5,3)-pyrazolo[1,5-a]pyrimidina-2(2,1)-bicyclo[3.1.10]hexana-3(1,2)-benzenacyclooctaphan-8-one], the IC50 in the experiment with KM12 cells, against TPM3-TRKA-G595R, on ETV6-TRKC, against ETV6-TRKC-G623R and on TPM3-TRKA was 1 nM throughout.

In the case of `C[C@@H]1COc2ncc(F)cc2[C@@]23C[C@@H]2CCN3c2ccn3ncc(c3n2)C(=O)N1` [Example 19, (1^3E,1^4E,2^1R,2^5S,6R)-3^5-fluoro-6-methyl-4-oxa-2^2,7-diaza-1(5,3)pyrazolo[1,5-a]pyrimidina-3(3,2)-pyridina-2(2,1)-bicyclo[3.1.0]hexanacyclooctaphan-8-one], the IC50 in the experiment with KM12 cells, at TPM3-TRKA-G595R, against ETV6-TRKC, against ETV6-TRKC-G623R and on TPM3-TRKA was 1 nM each time.

In the case of `C[C@@H]1COc2ccc(F)cc2[C@@]23C[C@@H]2CCN3c2ccc3ncc(n3n2)C(=O)N1` [Example 36, (2^1R,2^5S,6R,E)-3^5-fluoro-6-methyl-4-oxa-2^2,7-diaza-1(6,3)-imidazo[1,2-b]pyridazina-2(2,1)-bicyclo[3.1.0]hexana-3(1,2)-benzenacyclooctaphan-8-one], the IC50 is 6 nM in the experiment on KM12 cells; 17 nM on TPM3-TRKA-G595R; 3 nM on ETV6-TRKC; 13 nM against ETV6-TRKC-G623R; 2 nM against TPM3-TRKA.

For the compound `C[C@@H]1COc2ncc(F)cc2C2(CC2)Nc2ccn3ncc(c3n2)C(=O)N1` [Example 8, (R,3′E,4′E)-5′-fluoro-7′-methylspiro[cyclopropane-1,3′-5-oxa-2,8-diaza-1(5,3)-pyrazolo[1,5-a]pyrimidina-4(3,2)-pyridinacyclononaphan]-9′-one], the IC50 in the experiment on KM12 cells stood at 4 nM; against TPM3-TRKA-G595R, 67 nM; against ETV6-TRKC, 1 nM; at ETV6-TRKC-G623R, 39 nM; against TPM3-TRKA, 3 nM.

With `C[C@@H]1CCc2ccc(F)cc2[C@@]23C[C@@H]2CCN3c2ccn3ncc(c3n2)C(=O)N1` [Example 27, (1^3E,1^4E,2^1R,2^5S,6R)-3^5-fluoro-6-methyl-2^2,7-diaza-1(5,3)-pyrazolo[1,5-a]pyrimidina-2(2,1)-bicyclo[3.1.0]hexana-3(1,2)-benzeneacyclooctaphan-8-one], the concentration for half-maximal inhibition (IC50) in the experiment with KM12 cells, at TPM3-TRKA-G595R, on ETV6-TRKC, at ETV6-TRKC-G623R and against TPM3-TRKA was 1 nM each time.

In the case of `C[C@@H]1COc2ccc(F)cc2[C@]23C[C@H]2CCN3c2ccn3ncc(c3n2)C(=O)N1` [Example 38, (1^3E,1^4E,2^1R,2^5S,6R)-3^5-fluoro-6-methyl-4-oxa-2^4,7-diaza-1(5,3)-pyrazolo[1,5-a] pyrimidina-2(4,5)-bicyclo[3.1.0]hexana-3(1,2)-benzenacyclooctaphan-8-one], the IC50 stood at 3 nM with KM12 cells; 1 nM at TPM3-TRKA-G595R; 2 nM on ETV6-TRKC; 23 nM against ETV6-TRKC-G623R; 1 nM against TPM3-TRKA.

Take `C[C@@H]1CCc2ccc(F)cc2[C@@]23C[C@@H]2CCN3c2ccc3ncc(n3n2)C(=O)N1` [Example 37, (2^1R,2^5S,6R,E)-3^5-fluoro-6-methyl-2^2,7-diaza-1(6,3)-imidazo[1,2-b]pyridazina-2(2,1)-bicyclo[3.1.0]hexana-3(1,2)-benzena-cyclooctaphan-8-one]: the half-maximal inhibitory concentration (IC50) in the experiment with KM12 cells was 9 nM; at TPM3-TRKA-G595R, 10 nM; against ETV6-TRKC, 3 nM; on ETV6-TRKC-G623R, 8 nM; against TPM3-TRKA it was 1 nM.

For the origin of these results see patent publication US11555042B2, “Macrocyclic compounds as TRK kinases inhibitors” (FOCHON BIOSCIENCES, LTD., priority 2018, dated 2023).
